What all share (test): inhibition of tumour cell growth, NCI panel, 48 h
The test system of assay [1] is U251 CNS.
Assay [2] deals with A498 renal.
Assay [3] relates to MDA-N.
Assay [4] deals with SK-MEL-28 melanoma.
In assay [5] the test system is OVCAR-5 ovarian.
In assay [6] the test system is MOLT-4 leukemia.
The test system of assay [7] is MALME-3M melanoma.
Assay [8] concerns ACHN renal.

These results are taken from PubChem BioAssay (NCI).

Structures are written as SMILES.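 Grown in 96-well plates, cells were treated for 48 hours with each compound at five concentrations. Insufficient inhibition: endpoint recorded as highest concentration tested. TGI marks complete inhibition of growth.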

Consider `C=C1CCN2CC[C@@H](OC(=O)/C(C)=C\C)[C@@H]12`, for which the TGI in assay [1], in assay [2], in assay [3], in assay [4], in assay [5] and in assay [6] was greater than 100 µM throughout. The TGI in assay [7] and in assay [8] was greater than 100 µM throughout.
As to `Cn1c2ccc3cc2c(=S)c2cc(ccc21)OCCOCCOCCOCCOCCOCCO3`, the TGI in assay [1], in assay [2], in assay [3], in assay [4], in assay [5] and in assay [6] was greater than 10 µM in each case. The TGI in assay [7] and in assay [8] was greater than 10 µM throughout.
In the case of `COc1ncc(/C=C2\OC(=O)c3ccccc32)c(OC)n1`, the TGI in assay [1], in assay [2], in assay [3], in assay [4], in assay [5] and in assay [6] was greater than 100 µM throughout. Besides, the TGI in assay [7] and in assay [8] was greater than 100 µM in each case.
Consider `[N-]=[N+]=NC(c1ccccc1)(c1ccccc1)c1ccccc1`, for which the TGI amounted to 29.2 µM in assay [1]; 31.9 µM in assay [2]; 31.4 µM in assay [3]; 37.8 µM in assay [4]; 30.1 µM in assay [5]; 44.8 µM in assay [6]. Also, the TGI in assay [7] worked out at 29.5 µM; in assay [8] it was 29.1 µM.
With `COC(=O)c1c(C)nc2c1cc(O)c1[nH]c(C)c(C)nc12`, the TGI in assay [1], in assay [2], in assay [3], in assay [4], in assay [5] and in assay [6] was greater than 100 µM each time. Further, the TGI in assay [7] and in assay [8] was greater than 100 µM each time.
For the compound `CC1=Nc2ccccc2OC(C)=C1N=Nc1ccc2nc(C)[nH]c2c1`, the TGI was greater than 100 µM in assay [1]; 99.5 µM in assay [2]; greater than 100 µM in assay [3]; greater than 100 µM in assay [4]; greater than 100 µM in assay [5]; greater than 100 µM in assay [6]. Moreover, the TGI in assay [7] and in assay [8] was greater than 100 µM throughout.
Take `C(=C(c1ccc(OC2CCCCO2)cc1)c1ccc(OC2CCCCO2)cc1)c1ccccc1` (stereo not drawn): the TGI in assay [1] was 2.34 µM; in assay [2] it was 2.64 µM; in assay [3], 1.75 µM; in assay [4], 2.41 µM; in assay [5], 2.25 µM; in assay [6] it was greater than 100 µM. Moreover, the TGI in assay [7] and in assay [8] was 2.24 µM throughout.
`N[C@@H](CCC(=O)NCP(=O)(O)O)C(=O)O`: the TGI in assay [1], in assay [2], in assay [3], in assay [4], in assay [5] and in assay [6] was greater than 100 µM in each case. The TGI in assay [7] and in assay [8] was greater than 100 µM each time.
With `Cc1ccccc1OC(C)C(=O)NN1C(=O)CSC1c1ccccc1` (stereo not drawn), the TGI in assay [1] is greater than 100 µM; in assay [2], greater than 100 µM; in assay [3] it was greater than 100 µM; in assay [4] it was greater than 100 µM; in assay [5], greater than 100 µM; in assay [6] it was 25.3 µM. Further, the TGI in assay [7] and in assay [8] was greater than 100 µM each time.
For `CC(=O)N(C(=O)CC(=O)N1N=C(c2ccccc2)C(N=Nc2ccccc2[N+](=O)[O-])C1=O)c1ccc(Cl)cc1` (stereo not drawn), the TGI in assay [1], in assay [2], in assay [3], in assay [4], in assay [5] and in assay [6] was greater than 10 µM in each case. The TGI in assay [7] and in assay [8] was greater than 10 µM each time.
Regarding `COc1cc(S(=O)(=O)Nc2nc(-c3ccc(N4C(=O)C(CC(=O)O)SC4c4cccs4)cc3)cs2)ccc1Cl` (stereo not drawn), the TGI was greater than 100 µM in assay [1]; greater than 100 µM in assay [2]; greater than 100 µM in assay [3]; greater than 100 µM in assay [4]; greater than 100 µM in assay [5]; 64.6 µM in assay [6]. The TGI in assay [7] is 72.2 µM; in assay [8] it was greater than 100 µM.
`CC(=O)/C=C/C1=C(C)CCCC1(C)CC(C)C` (stereo not drawn): the TGI in assay [1] was 86.7 µM; in assay [2], greater than 100 µM; in assay [3] it was greater than 100 µM; in assay [4], greater than 100 µM; in assay [5] it was greater than 100 µM; in assay [6], 41.5 µM. In addition, the results for the TGI in assay [7] and in assay [8] were 89.1 µM and 47.9 µM, respectively.
Take `CCOC(=O)Nc1sc2c(c1C#N)CCCC2`: the TGI in assay [1], in assay [2], in assay [3], in assay [4], in assay [5] and in assay [6] was greater than 100 µM in each case. Also, the TGI in assay [7] and in assay [8] was greater than 100 µM each time.
In the case of `Oc1ccc(Cc2cc(Cc3ccc(O)cc3)cc(Cc3ccc(O)cc3)c2)cc1`, the TGI in assay [1], in assay [2], in assay [3], in assay [4], in assay [5] and in assay [6] was greater than 50 µM throughout. Further, the TGI in assay [7] and in assay [8] was greater than 50 µM throughout.
Consider `Nn1c(-c2ccccc2)n[nH]c1=O`, for which the TGI in assay [1], in assay [2], in assay [3], in assay [4], in assay [5] and in assay [6] was greater than 100 µM in each case. Moreover, the TGI in assay [7] and in assay [8] was greater than 100 µM each time.
Take `O=[N+]([O-])c1ccc2[nH]nc(OCc3ccccc3Cl)c2c1`: the TGI in assay [1], in assay [2], in assay [3], in assay [4], in assay [5] and in assay [6] was greater than 100 µM each time. Besides, the TGI in assay [7] was greater than 100 µM; in assay [8], 62.1 µM.
